The text below walks through data of patent publication US4992466A, “Polycyclic ether antibiotic” (Pfizer Inc., priority 1986, dated 1991).

One experiment deals with E. acervulina. In words: efficacy against coccidial infection in chickens (lesion scores). As to conditions: in diet of chickens at 15 to 120 ppm; five days.
The next experiment relates to E. maxima. The description is as above. As to conditions: in diet of chickens at 15 to 120 ppm; six days.
In the next experiment the test system is Eimeria tenella. The experiment is described as above. The following applies: in diet of chickens at 15 to 120 ppm; six days.
Another experiment deals with E. necatrix. The experiment is described as above. The following applies: in diet of chickens at 15 to 120 ppm; six days.
A further experiment deals with Clostridium perfringens. In words: microbe, parasite or virus in culture. Format: cell-based. As to conditions: 24 h.
The next experiment deals with E. brunetti. In words: efficacy against coccidial infection in chickens (lesion scores). The following applies: in diet of chickens at 15 to 120 ppm; six days.
The next experiment has as its system rumen fluid. The experiment in a line: in vitro rumen technique, propionic acid production. As to conditions: 20 micrograms per milliliter, 39° C., about 16 hours, read-out: increase in the production of propionic acid over control solution. Format: cell-based, cow. Here is the method: The value of animal feeds has generally been determined directly by feeding the animal. British Patent Specification No. 1,197,826 details an in vitro rumen technique whereby the changes occurring in feed brought about by microorganisms are measured more readily and with great accuracy in the evaluation of animal feeds. This technique involves the use of an apparatus in which the digestive processes of the animals are conducted and studied in vitro. The animal feeds, rumen inoculum and various growth promotants are introduced into and withdrawn from a laboratory unit under carefully controlled conditions and the changes taking place are studied critically and progressively during the consumption of the feed by the microorganisms. […] The change in propionic acid content is expressed as percent of the propionic acid content found in the control rumen fluid. Long term in vivo feeding studies are used to show a reliable correlation between propionic acid increase in the rumen fluid and improved animal performance. […]
After incubation, 5 ml. of the sample is mixed with 1 ml. of 25% metaphosphoric acid. […] Samples are then analyzed by gas-liquid chromatography by the method of D. W. Kellog, J. Dairy Science, 52, 1690, 1969. Peak heights for acetic, propionic and butyric acids are determined for samples from untreated and treated incubation flasks.

Another experiment deals with coccidial infections. In words: activity against coccidial infections in poultry (lesion scores). The following applies: in diet of chickens.
Another experiment relates to Actinomyces pyogenes. In words: in vitro antibacterial MIC (tube dilution, 24 hours). The format is cell-based. How it is done: (§1) In Table I, below, the results of in vitro tests are summarized. For this test each organism is inoculated in a series of test tubes containing nutrient medium and varying concentrations of Antibiotic UK No.-61,689 to determine the minimal concentration of the compound in μg./ml. which inhibits the growth of the organism over a period of 24 hours (MIC).

The subject of the next experiment is Treponema hyodysenteriae. Described as above. The format is cell-based. As to conditions: Brachyspira hyodysenteriae. How it is done: as §1

Converted amounts (≈) assume the structure as drawn. Like-named read-outs stand apart in the source and are kept apart here.

As to `COC1CCC(OC2CC(C3OC(C)(O)C(C)CC3C)OC2C2(C)CCC(C3(C)CCC4(CC(O)C(C)C(C(C)C5OC(O)(CC(=O)O)C(C)C(O)C5OC)O4)O3)O2)OC1C` (stereo not shown) [Antibiotic UK No.-61,689], the “controlling infections due to E. acervulina” value with E. acervulina is on record as “effective in controlling infections”. Besides, the “controlling infections due to E. maxima” value in the experiment with E. maxima is “effective in controlling infections”. The “controlling infections due to Eimeria tenella” value with Eimeria tenella is on record as “effective in controlling infections”. In the experiment with E. necatrix, the “controlling infections due to E. necatrix” value is listed as “effective in controlling infections”. The MIC came out at 25 µg/mL (≈ 28.6 µM) in the experiment with Clostridium perfringens (strain 10A006); 3.12 µg/mL (≈ 3.57 µM) against Clostridium perfringens (strain 10A009); 0.39 µg/mL (≈ 0.447 µM) in the experiment with Actinomyces pyogenes (Trueperella pyogenes, strain 14D002, read-out: MIC); 0.39 µg/mL (≈ 0.447 µM) against Actinomyces pyogenes (strain 14D008); 0.39 µg/mL (≈ 0.447 µM) in the experiment on Actinomyces pyogenes (strain 14D011); 6.25 µg/mL (≈ 7.16 µM) in the experiment with Treponema hyodysenteriae (strain 94A001). Besides, the MIC against Treponema hyodysenteriae (strain 94A002) was determined as 6.25 µg/mL (≈ 7.16 µM); against Treponema hyodysenteriae (strain 94A007) it was 3.12 µg/mL (≈ 3.57 µM); with Treponema hyodysenteriae (strain 94A008) it was 3.12 µg/mL (≈ 3.57 µM). Moreover, in the experiment on E. brunetti, the “controlling infections due to E. brunetti” value is recorded as “effective in controlling infections”. Further, the activation at 20 µg/mL with rumen fluid is ~80%. Moreover, in the experiment with coccidial infections, the “activity against coccidial infections in poultry” value is “excellent activity”.
